Values belong to the compound of their own block, whether it stands above or below them. Active and inactive are the calls of the source. The calls are words filed in the database; no cut-off is given here.
Key:
Bel-7402 [1] = assay: Antiproliferative activity against human Bel-7402 cells assessed as reduction in cell viability incubated for 72 hrs by MTT assay; format: functional, cell-based; details: bel-7402
Bel-7402 [2] = assay: Antiproliferative activity against ADR-resistant human Bel-7402 cells assessed as reduction in cell viability incubated for 72 hrs by MTT assay; format: functional, cell-based; details: bel-7402
K562/VCR = assay: Antiproliferative activity against VCR resistant human K562/VCR cells assessed as reduction in cell viability incubated for 72 hrs by MTT assay; format: functional, cell-based; details: k562/vcr
H22 [3] = assay: Antitumor activity against […] xenografted in ICR mouse assessed as reduction in tumor weight at 6 mg/kg, iv dosed every other day for 21 days; format: functional; details: 504 h, time 21 day
[4] = Aqueous solubility of the compound in phosphate buffer at pH 7.4 by HPLC-UV analysis; format: physicochemical
[5] = Aqueous solubility of the compound in aqueous HCl at pH 2 by HPLC-UV analysis; format: physicochemical
[6] = Inhibition of pig brain tubulin polymerisation incubated for 30 mins and measured every 2 mins for 60 mins by spectrophotometric method; format: tissue-based, Sus scrofa
[7] = Acute toxicity in ICR mouse assessed as animal survival at 327.7 mg/kg, iv measured for 14 days; format: organism-based; details: in vivo, time 14 day
[8] = Acute toxicity in ICR mouse assessed as animal survival at 409.6 mg/kg, iv measured for 14 days; format: organism-based; details: in vivo, time 14 day
[9] = Acute toxicity in ICR mouse assessed as animal survival at 512 mg/kg, iv measured for 14 days; format: organism-based; details: in vivo, time 14 day
[10] = Acute toxicity in ICR mouse assessed as animal survival at 640 mg/kg, iv measured for 14 days; format: organism-based; details: in vivo, time 14 day
[11] = Acute toxicity in ICR mouse assessed as animal survival at 800 mg/kg, iv measured for 14 days; format: organism-based; details: in vivo, time 14 day
[12] = Acute toxicity in iv dosed ICR mouse; format: organism-based; details: in vivo
H22 [13] = assay: Antitumor activity against […] xenografted in ICR mouse assessed as reduction of tumor weight at 20 mg/kg/day, iv for 21 days; format: functional; details: 504 h, time 21 day
[14] = Toxicity in ICR mouse xenografted with […] cells assessed as effect on body weight at 20 mg/kg/day, iv for 21 days; format: organism-based; details: in vivo, 504 h, time 21 day
[15] = Toxicity in ICR mouse xenografted with […] cells assessed as effect on heart morphological changes at 20 mg/kg/day, iv for 21 days by H and E staining based assay; format: organism-based; details: in vivo, 504 h, time 21 day
[16] = Toxicity in ICR mouse xenografted with […] cells assessed as effect on liver morphological changes at 20 mg/kg/day, iv for 21 days by H and E staining based assay; format: organism-based; details: in vivo, 504 h, time 21 day
[17] = Toxicity in ICR mouse xenografted with […] cells assessed as effect on spleen morphological changes at 20 mg/kg/day, iv for 21 days by H and E staining based assay; format: organism-based; details: in vivo, 504 h, time 21 day
[18] = Toxicity in ICR mouse xenografted with […] cells assessed as effect on lungs morphological changes at 20 mg/kg/day, iv for 21 days by H and E staining based assay; format: organism-based; details: in vivo, 504 h, time 21 day
[19] = Toxicity in ICR mouse xenografted with […] cells assessed as effect on kidney morphological changes at 20 mg/kg/day, iv for 21 days by H and E staining based assay; format: organism-based; details: in vivo, 504 h, time 21 day
H22 [20] = assay: Antitumor activity against […] xenografted in ICR mouse assessed as reduction in tumor growth at 20 mg/kg/day, iv for 21 days; format: functional, organism-based; details: time 21.0 day

IC50 (Bel-7402 [1]): Not Active
IC50 (Bel-7402 [2]): Not Active
IC50 (K562/VCR): Not Active
IC50 (K562): Not Active
SMILES: CC(=O)O[C@H]1C(=O)[C@@]2(C)[C@H]([C@H](OC(=O)c3ccccc3)[C@]3(O)C[C@H](OC(=O)[C@H](O)[C@@H](NC(=O)c4ccccc4)c4ccccc4)C(C)=C1C3(C)C)[C@]1(OC(C)=O)CO[C@@H]1C[C@@H]2O [PACLITAXEL]
inhibition in vivo at 6 mg/kg (H22 [3]): 72.7%

SMILES: COc1ccc(CNC(=O)c2cc(F)ccc2N2CCOCC2)cc1OP(=O)([O-])[O-].[Na+].[Na+]
solubility [4]: > 1000 µg/mL
solubility [5]: > 1000 µg/mL
IC50 [6]: 6.18 µM
survival at 336 h [7]: 90%
survival at 336 h [8]: 80%
survival at 336 h [9]: 70%
survival at 336 h [10]: 50%
survival at 336 h [11]: 20%
LD50 [12]: 600 mg/kg
inhibition in vivo at 20 mg/kg/day (H22 [13]): 71.4%
Activity [14]: Non-Toxic
Activity [15]: Non-Toxic
Activity [16]: Non-Toxic
Activity [17]: Non-Toxic
Activity [18]: Non-Toxic
Activity [19]: Non-Toxic
Activity (H22 [20]): Active

From ChEMBL document CHEMBL4813973, “Discovery of novel N-benzylbenzamide derivatives as tubulin polymerization inhibitors with potent antitumor activities” (Eur J Med Chem, 2021)
